The values that follow come from article PMC8880315, “Understanding the Impact of Age-Related Changes in Pediatric GI Solubility by Multivariate Data Analysis” (Pharmaceutics, 2022).

Values after ≈ are worked out from the molar mass of the structure shown. Where two headings read alike, the source gives them in different places.

The conditions of data set [1]: cited from earlier work.
On the set-up of data set [2]: method as in PMID 26220249. The note with it: cited from earlier work.
Data set [3] in a line: physchem. The note with it: adult fed state simulated gastric fluid (FeSSGF), milk-based, 37 °C, pH 5, fassgf or other biorelevant, thermodynamic from solid.
The nature of data set [4]: physchem. Conditions: 37 °C, thermodynamic from solid.
[5] abbreviates: Table 1, reference per cell, none given for mebendazole.
[6] abbreviates: adult fasted state simulated gastric fluid (FaSSGF), pH 1.6, fassgf or other biorelevant.
[7] abbreviates: adult fasted state simulated intestinal fluid (FaSSIF-V2), pH 6.5, fassif.
Where [8] appears, read: adult fed state simulated intestinal fluid (FeSSIF-V2), pH 5.8, fessif.
Setting [9] is: at least one of the newborn FeSSIF (Pnb-FeSSIF and Pnc-FeSSIF), previous solubility study.

The logP is the decadic logarithm of the partition coefficient of the neutral form, usually between octanol and water. Consider `Nc1ccc(O)c(C(=O)O)c1` [Mesalazine], for which, in data set [1] (setting [5]), the logP is 0.98 [8] and the “pKa (basic)” value is 5.69. Also, in data set [1] (Table 1, reference per cell), the “pKa (acidic)” value was 2.3. For the same compound, in data set [1] (no reference given), the “pKa (basic)” value is 5.7.

Take `COc1ccc2c(c1)c(CC(=O)O)c(C)n2C(=O)c1ccc(Cl)cc1` [indomethacin]: in data set [2] (newborn gastric media (Pn-FaSSGF), previous study), the “Sp/Sa (%) vs 80–[…] threshold” value is recorded as “outside the limits of the 80–125% threshold”. Moreover, the lipophilicity (logP) in data set [1] (no reference given) is 4.3.

Broadly, the solubility is the dissolved amount per volume that the medium holds. Read a high solubility as a readily soluble substance. For `O=C1CN(/N=C/c2ccc([N+](=O)[O-])o2)C(=O)N1` [Nitrofurantoin], the solubility at 48 h in the data set “physchem [3]” is 390 ± 6.35 µg/mL (≈ 1640 µM). The solubility at 24 h in the data set “physchem [4]” (setting [6]) was 196 ± 11.7 µg/mL (≈ 823 µM); in the data set “physchem [4]” (setting [7]), 215.7 ± 1.96 µg/mL (≈ 906 µM); in the data set “physchem [4]” (setting [8]), 209 ± 3.22 µg/mL (≈ 879 µM). Besides, the “Sp/Sa (%) vs 80–[…] risk assessment limits” value (all pediatric media tested) is reported as “within the 80–125% risk assessment limits”. For the same compound, the “solubility differences between adults and pediatrics” value (all pediatric media tested) was “no significant solubility differences”. The “pKa (acidic)” value in data set [1] (Table 1, reference per cell) was 7.2 (acidic) [13].

Regarding `O=C1NC(=O)C(c2ccccc2)(c2ccccc2)N1` [phenytoin], the “Sp/Sa (%)” value in data set [2] (Pnc-FeSSIF, compound of the previous study) was “significant lower”; in data set [2] (setting [9]), “below 80 % of adult values”.

In the case of `NC(=O)N1c2ccccc2C=Cc2ccccc21` [carbamazepine], the “solubility in pediatric gastric fluids in comparison to adult gastric fluids” value in data set [2] (fasted gastric fluids, previous study) is “statistical different (p ≤ 0.05) and outside the purported bioequivalence criterion”.

Turning to `CC(C)(O)c1ccccc1CC[C@@H](SCC1(CC(=O)O)CC1)c1cccc(/C=C/c2ccc3ccc(Cl)cc3n2)c1` [Montelukast], the “pKa (basic)” value in data set [1] (setting [5]) is recorded as 2.7. Moreover, in data set [1] (Table 1, reference per cell), the “pKa (acidic)” value is 5.8.

As to `COC1=CC(=O)C[C@@H](C)[C@]12Oc1c(Cl)c(OC)cc(OC)c1C2=O` [griseofulvin], the “Sp/Sa (%)” value in data set [2] (setting [9]) was “below 80 % of adult values”.

As for `Nc1ccc(S(=O)(=O)c2ccc(N)cc2)cc1` [dapsone], the logP in data set [1] (no reference given) was 0.97.

As to `OCCN(CCO)c1nc(N2CCCCC2)c2nc(N(CCO)CCO)nc(N3CCCCC3)c2n1` [Dipyridamole], the solubility at 48 h in “physchem [3]” is 158 ± 7.22 µg/mL (≈ 314 µM). Moreover, the solubility at 24 h in “physchem [4]” (setting [6]) is 11500 ± 570 µg/mL (≈ 22800 µM); in the data set “physchem [4]” (setting [7]), 11.9 ± 0.17 µg/mL (≈ 23.5 µM); in the data set “physchem [4]” (setting [8]) it was 81.4 ± 1.74 µg/mL (≈ 161 µM). Moreover, the “solubility in pediatric vs adult medium” value by setting is: (Pnc-FeSSGF (cow's milk formula) vs adult FeSSGF) “significantly lower solubility”; (Pns-FeSSGF (soy formula) vs adult FeSSGF) “significantly higher solubility”; (all pediatric fed intestinal media (Pnb-FeSSIF, Pnc-FeSSIF, Pi-FeSSIF) vs adult FeSSIF-V2) “significant solubility differences”; (pediatric fasted gastric fluids (Pn-FaSSGF and Pi-FaSSGF) vs adult FaSSGF, ANOVA p ≤ 0.05) “higher solubility in both pediatric gastric fluids; however, these differences were not statistically significant”. Moreover, the “pKa (basic)” value in data set [1] (setting [5]) was 5.7–6.4 (basic) [19, 20].

In the case of `COC(=O)Nc1nc2ccc(C(=O)c3ccccc3)cc2[nH]1` [Mebendazole], in data set [1] (setting [5]), the logP was 2.80 and the “pKa (basic)” value was 3.5 (basic).
